Test results taken from patent US11679110B2, “Methods of treating disorders using CSF1R inhibitors” (Deciphera Pharmaceuticals, LLC, priority 2018, dated 2023).

Legend:
[1] = system: CD16+ monocytes; assay: Depletion of CSF1R-expressing (CD16+) monocytes in peripheral blood of patients, flow cytometry; assay type: in vivo, human; details: C2D1 compared to C1D1
Protocol: (§1) PK analysis was conducted on all 38 patients. Serial blood samples were collected for PK and took place on either Day −7, Cycle 1, Day 1 (C1D1) and C2D1 at pre-dose, 0.5, 1, 2, 4, 6, 8, 10-12, and 24 hr time points or Day −7, C1D1, C1D8, and C2D1 at pre-dose, 1, 2, 4, 6, and 8 hr time points, or C1D1, C1D8, and C2D1 at pre-dose, 1, 2, 4, 6, and 8 hr time points. High fat meal was given prior to dosing of Compound 1 on Day −7. PD effects were measured by two methodologies: 1) depletion of CSF1R-expressing monocytes in peripheral blood (Cohorts 1-7) from C1D1, C1D15 and C2D1; and 2) increase of plasma levels of CSF1 and IL-34, the ligands for CSF1R (Cohorts 1-7) on C1D1, C1D15, and C2D1. For the CD16^+ monocyte assay, whole blood collected in an EDTA vacutainer was aliquoted into tubes and incubated with fluorescently-labeled antibodies (CD14-Alexa488 (BD Pharmingen); CD16-PE-Cy7 (BD Pharmingen); and TIE2-APC (R&D Systems). After incubation, red blood cells were lysed, and the remaining cells were washed several times before being analyzed on a flow cytometer. For the plasma CSF1 assay or IL-34, whole blood collected in an EDTA vacutainer was centrifuged, and the plasma was collected and frozen. Plasma levels of CSF1 or IL-34 were measured using a commercial ELISA kit (R&D Systems).

[2] = system: CSF1; assay: Plasma CSF1 levels in patients, ELISA; assay type: in vivo, human; details: average at C2D1 vs C1D1
Protocol: as §1

[3] = system: advanced solid tumors; assay: Antitumor activity in patients with advanced solid tumors, RECIST 1.1; assay type: in vivo, human
Source text: The study enrolls patients with solid tumors or manifestations of cancer with known contribution of macrophages or phagocytes, i.e., tumors known to have expression of the receptor colony-stimulating factor 1 receptor (CSF1R) or its ligands, Colony stimulating factor-1 (CSF1) or interleukin (IL)-34, confirmed by the literature or prior testing. […]. In addition, tumor-associated manifestations featuring macrophage or osteoclast pathophysiology including bone metastases and ascites or effusions that typically contain high levels of macrophages will be enrolled. […].
The study consists of a screening period that is conducted within 28 days prior to the first dose of study drug, a treatment period of 28-day cycles, an End of Treatment visit, and Follow-up Safety visits at both 30 days and 75 days (±5 days) after the last dose of study drug. Patients will be eligible to receive study drug for up to 2 years until tumor progression, occurrence of unacceptable toxicity, or withdrawal of consent, or until commercial supply of the drug is available. […] Patients may continue receiving treatment after tumor progression. […]
Tumor response will be assessed by tumor type using the following criteria: for solid tumors and DTGCT: RECIST, Version 1.1; and for bone-only disease: a new lesion(s) identified by bone scan will be considered as disease progression.

[4] = Dose escalation 3+3 design, DLT / maximum tolerated dose in patients; assay type: in vivo, human; details: through Cohort 7
Source text: A minimum of 3 patients is enrolled in each dose level cohort. If a patient experiences a DLT during Cycle 1, then the cohort will be expanded to 6 patients. If ≥2 patients out of 3 to 6 patients experience one or more dose-limiting toxicities (DLT(s)) during Cycle 1, dose escalation will end, and a lower dose level cohort will be expanded for determination of the maximum tolerated dose (MTD). If no additional patients experience a DLT in the expanded cohort, the dose level will be escalated. Decisions of dose escalation and the dose level of the next cohort will be determined. A patient will be evaluable in the dose escalation phase if the patient either experienced a DLT during Cycle 1 or received ≥80% of planned doses of study drug in Cycle 1. After Dose Escalation Cohort 6, a review of safety, PK and PD data will determine future escalation cohorts. No more than 50% increases in a total dose given in the first cycle will be allowed from the previous cohort.
The MTD will be defined as the highest dose level at which no more than 1 of 6 DLT-evaluable patients experiences a DLT(s) in Cycle 1 during dose escalation. An additional, lower, intermediate dose level may be explored to determine a recommended phase 2 dose (RP2D). The RP2D will be the MTD or a biologically active or maximally feasible dose lower than the MTD. Different RP2Ds may be determined for solid tumor and DTGCT patients. […]

[5] = target: unphosphorylated c-KIT kinase (Homo sapiens (Human), UniProt P10721); assay: c-KIT kinase assay, coupled pyruvate kinase/lactate dehydrogenase; assay type: biochemical; details: enzymatic assay, 1 mM ATP
[6] = human, in vivo
[7] = in vivo; details: Sprague-Dawley, rat
[8] = dog

Chain of unphosphorylated c-KIT kinase (P10721 other isoform, or with tags, fused parts or gaps): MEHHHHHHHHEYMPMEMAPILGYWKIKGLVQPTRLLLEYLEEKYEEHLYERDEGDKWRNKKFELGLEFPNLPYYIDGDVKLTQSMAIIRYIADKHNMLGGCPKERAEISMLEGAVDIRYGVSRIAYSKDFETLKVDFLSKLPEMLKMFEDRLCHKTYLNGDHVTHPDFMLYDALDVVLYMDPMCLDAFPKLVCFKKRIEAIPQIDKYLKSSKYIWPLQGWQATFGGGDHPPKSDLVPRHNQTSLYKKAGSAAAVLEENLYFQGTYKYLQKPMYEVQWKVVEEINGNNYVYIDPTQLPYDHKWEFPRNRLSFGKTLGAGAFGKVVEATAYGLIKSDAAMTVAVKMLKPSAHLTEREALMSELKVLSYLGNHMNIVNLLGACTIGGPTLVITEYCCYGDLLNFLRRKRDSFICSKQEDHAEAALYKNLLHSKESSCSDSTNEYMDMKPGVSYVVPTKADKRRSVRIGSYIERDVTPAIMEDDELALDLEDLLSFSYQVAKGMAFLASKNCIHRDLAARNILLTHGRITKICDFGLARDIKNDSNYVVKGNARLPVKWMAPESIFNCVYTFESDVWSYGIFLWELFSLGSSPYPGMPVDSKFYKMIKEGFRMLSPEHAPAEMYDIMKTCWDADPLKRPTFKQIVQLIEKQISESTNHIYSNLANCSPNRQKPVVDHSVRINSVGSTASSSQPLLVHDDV

In the case of `Cc1nc(-c2cnc(NC(C)C)n(C)c2=O)ccc1Oc1ccnc(-c2cnn(C)c2)c1` [Compound 1, 2-(isopropylamino)-3-methyl-5-(6-methyl-5-((2-(1-methyl-1H-pyrazol-4-yl)pyridin-4-yl)oxy)pyridin-2-yl)pyrimidin-4(3H)-one], the “decrease in levels of CSF1R-expressing monocytes” value (“decrease in levels” for short) ([1]; Cohort 2) is reported as roughly 48%, the “decrease in levels” value ([1]; Cohort 3) is reported as roughly 54% and the “decrease in levels” value ([1]; Cohort 4) is reported as roughly 79%. For the same compound, the “decrease in levels” value ([1]; Cohort 5) was roughly 98%, the “increase in plasma CSF1” value ([2]; Cohort 1) was 6 fold and the “increase in plasma CSF1” value ([2]; Cohort 2) was 1.5 fold. For the same compound, the “increase in plasma CSF1” value ([2]; Cohort 3) was 2.9 fold, the “increase in plasma CSF1” value ([2]; Cohort 4) was 3.2 fold and the “increase in plasma CSF1” value ([2]; Cohort 5) was 43 fold. The “duration of stable disease” value ([3]; a patient with thymoma) was 6 months, the “patients with a best response of stable disease” value ([3]; advanced solid tumors, dose escalation) was 5 patients and the MTD [4] was “has not been reached”. For the same compound, the IC50 [5] was 864 nM, the “Grade 3/4 elevated AST/ALT events, elevated bilirubin levels or hepatic AEs” value [6] was “did not exhibit” and the NOAEL at 13 weeks [7] was 1.88 mg/kg/day. The NOAEL at 4 weeks ([8]; beagle, in vivo) was 7.5 mg/kg/day, the “hepatocellular injury in microscopic histology exams” value ([8]; 4-week) was “not evident” and the AST activity ([8]; 4-week, ≥2.5 mg/kg/day) was “minimally to mildly increased”. The “ALT and GLDH activity” value ([8]; 4-week, ≥7.5 mg/kg/day) was “minimally increased”.
